Test [1] concerns cGAS-knockout Hela cells reconstituted with EGFP-hcGAS-FL. The test is described as follows: Live-cell imaging of cGAS-DNA puncta. Format: cell-based, human. The following applies: 10 μM, 4 h. As to the method: cGAS-knockout Hela cells reconstituted with EGFP-tagged full-length human cGAS (EGFP-hcGAS-FL) were obtained by transfecting pEGFP-C2-hcGAS-FL recombinant plasmid, and were seeded into 20-mm glass-bottom cell culture dish (NEST). Cell culture media was replaced with fresh medium for 1 h, then cells were stimulated by transfection of ISD by lipofectamine 2000 (Invitrogen) after DMSO or XQ2 (10 μM) treatment for the indicated time. The cells were rinsed three times with PBS, and live-cell imaging was performed by using Nikon A1R+ confocal microscope with a 40× oil objective, Nikon A1 camera, and X-Cite 120LED laser. Images were analyzed by FIJI software.

Test [2] has as its system THP1-Lucia ISG cells. The test is described as follows: Luciferase reporter assay, dsDNA stimulation. Format: cell-based, human. Set-up: Type I interferon response, luciferase activity, Fig. 1c / luciferase activity, Fig. 2a: scale not given here. The source says: To screen direct cGAS inhibitors targeting protein-DNA interface from our developed focused library of macrocyclic peptides, we applied an RNA-based fluorescent biosensor for 2’,3’-cGAMP to detect cGAS activity in vitro (Supplementary Fig. 1a)[49]. The formation of 2’,3’-cGAMP from ATP and GTP was catalyzed by recombinant human cGAS enzyme (hcGAS-ΔN, residues 147–522, Supplementary Fig. 1b) in the presence of ISD (interferon stimulatory DNA, a 45-bp dsDNA), which was readily quantified by the RNA-based fluorescent biosensor and was further confirmed by ion exchange chromatography (Supplementary Fig. 1c). […] Subsequently, a total of 90 macrocyclic peptides were screened at a concentration of 20 μM (Fig. 1a and Supplementary Fig. 1e), and 4 hits (XQ2, XQ8, XQ19, and XQ46) were obtained for further testing at a cut-off of 40% inhibition (Supplementary Table 1). To evaluate the inhibitory effect of the hits against cGAS in cells, we employed real-time quantitative PCR (qPCR) to examine mRNA levels of IFNΒ1 in THP1 cells. The reported cGAS inhibitor RU.521 was used as the positive control, and the non-active peptide XQ28 in the screening assay was used as the negative control. […] The inhibition of cGAS by these hits was further confirmed in the reporter cell line THP1-Lucia ISG (Invivogen) that expresses secreted luciferase induced by an IRF3-inducible ISG54 promoter (Fig. 1c). The discrepancy between the inhibitory effect of the hits in protein and cellular assays may be attributed to their different cellular permeability.
THP1-Lucia ISG cells (Invivogen) were seeded into a 96-well plate and incubated with RU.521 (Invivogen) or XQ2 for the indicated time, and then transfected with dsDNA by lipofectamine 2000 (Invitrogen) or infected by HSV-1 with the indicated titer for 24 h. The supernatant was collected and 50 μL QUANTI-Luc Luciferase reagent (Invivogen) was added to 20 μL supernatants per well, and luciferase luminescence was detected by a microplate reader (BioTek Synergy H1) immediately.

Test [3] deals with Hela cells. The test is described as follows: HSV-1 cytopathogenic effect, CCK-8 viability (rebuttal Fig. R1). Format: cell-based, human. The following applies: 10 μM.
Experimental: We tested the effect of XQ2 on human cervical cancer
HSV-1 infection given that epithelial cells are generally weak responders of cGAS-
cells and THP1 cells were pretreated for 3 h with DMSO or XQ2 (10 μM), followed by
the indicated titer of HSV-1 infection. The cell v iability was measured by CCK-8 assay.
The subject of test [4] is Cy5-ISD (45-bp dsDNA ISD). The test is described as follows: Microscale thermophoresis (MST) with dsDNA. Particulars: Cy5-ISD 10 nM. Format: binding.
Experimental: Excitation was optimized by varying the power to obtain fluorescence intensities above 200 counts. Data were analyzed by using the MO.Affinity Analysis software.
The target of test [5] is T1, hcGAS-FL (D191R) mutant (Homo sapiens, UniProt Q8N884, D191R).
T1 construct: The gene encoding full-length human cGAS (hcGAS-FL); 6xHis-SUMO (N, cleaved yes); made in house; host or cells: Escherichia coli BL21 (DE3)
The test is described as follows: Surface plasmon resonance (SPR). It is filed as binding. As to the method: All SPR binding studies were performed with a Biacore 8 K instrument (GE Healthcare Life Sciences). hcGAS-FL / hcGAS-ΔN (1 mg mL^−1) was immobilized in a CM5 chip by EDC/NHS method. The tested peptide was diluted with running buffer (20 mM HEPES, pH 7.5, 125 mM KCl,10 mM MgCl2). All the samples contained the same concentration of DMSO (0.5%). The tested peptide was injected at a flow rate of 30 μL min^−1 for 200 s of association, followed by 200 s of disassociation at 25 °C. The final graphs were obtained by subtracting blank sensorgrams. The data were analyzed with Biacore Insight Evaluation software.
Supplementary Fig. 5. The binding site of XQ2 may locate at the cGAS-dsDNA interface. (a) The 2D schematic of docked structure of XQ2 with cGAS (PDB ID: 4O69). (b) Structure activity relationship (SAR) analysis of XQ2 a nd its analogues based on the docked structure of the peptides with cGAS. (c) FAM-ISD (40nM) was incubated with the indicated doses of hcGAS-FL or hcGAS-FL (D191R) mutant, and the polarization signal was detected by a microplate reader. (d) SPR analysis of the binding of hcGAS-FL (D191R) mutant with XQ2. The binding affinity (Kd) […]
Data are representative of three independent experiments in (c). (Data […]
Source data are provided as a Source Data file.
XQ- Sequence Inhibition % […]

Test [6] has as its system Jurkat cells. The test is described as follows: Flow cytometry of apoptosis, Annexin V and PI staining. Format: cell-based, human. The following applies: XQ2B +. As for the experimental part: Cell death was measured by Annexin V-FITC/PI Apoptosis Kit (Elabscience) according to the manufacturer’s instructions. Data were acquired on an Attune NxT (ThermoFisher) flow cytometer and analyzed in FlowJo.
Supplementary Fig. 8. XQ2B inhibits cGAS induced autophagy and cell death. (a) L929 cells were pretreated […]
measured by CCK8 assay. p = 0.0022. (c, d) Jurkat cells were treated with DMSO or XQ2B (5 μM), followed by stimulation with ISD (2ug/ml) for 4 h. Flow cytometric analysis of apoptosis assessed by Annexin V and PI staining.
Analysis strategy shown was used to determine the Annexin V+ or PI+ population (c). Numbers in quadrants present […]
percentages (d). p = 0.0006. […]
by HSV-1 infection for indicated titer and periods. Induction of HSV-1(UL5) mRNA was measured by qPCR. p = 0.0018 (1×10^4 pfu); p < 0.0001 (2×10^4 pfu). Data are representative of three independent experiments with similar results in (a), or three independent experiments in (b, d, e). (Data are presented as mean ± SD, n = 3 independent […]
are provided as a Source Data file.

SMILES strings stand for the structures. Where “and” joins values, the source holds several entries; their conditions need not be identical. Equal values may be shown once. Entries after “also recorded” stand apart in the source; their conditions may differ. Square brackets hold non-standard residues; d marks the D form. Peptide text beside a SMILES is read from it.

The record followed here is publication PMC10545747, “Development of cyclopeptide inhibitors of cGAS targeting protein-DNA interaction and phase separation” (Nature Communications, 2023).

T1 sequence (Q8N884 whole entry D191R): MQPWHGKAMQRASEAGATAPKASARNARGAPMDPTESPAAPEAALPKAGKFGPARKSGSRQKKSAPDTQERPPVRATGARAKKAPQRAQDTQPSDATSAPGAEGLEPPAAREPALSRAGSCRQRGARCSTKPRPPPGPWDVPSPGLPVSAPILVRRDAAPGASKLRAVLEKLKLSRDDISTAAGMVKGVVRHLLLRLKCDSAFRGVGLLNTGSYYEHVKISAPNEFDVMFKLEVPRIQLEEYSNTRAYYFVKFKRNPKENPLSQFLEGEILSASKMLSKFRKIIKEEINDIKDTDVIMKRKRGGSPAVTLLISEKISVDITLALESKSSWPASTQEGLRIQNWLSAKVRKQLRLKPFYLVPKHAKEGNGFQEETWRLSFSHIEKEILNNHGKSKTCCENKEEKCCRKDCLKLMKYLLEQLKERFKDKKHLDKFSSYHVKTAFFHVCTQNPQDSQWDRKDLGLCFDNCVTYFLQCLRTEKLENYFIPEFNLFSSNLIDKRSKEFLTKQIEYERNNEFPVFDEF

For `CC(C)C[C@@H]1NC(=O)[C@H](CCCNC(=N)N)NC(=O)[C@H](C(C)C)NC(=O)[C@@H]2CCCN2C(=O)[C@@H](Cc2ccccc2)NC(=O)[C@H](CC(C)C)NC(=O)[C@H](CCCNC(=N)N)NC(=O)[C@H](C(C)C)NC(=O)[C@H](C)NC(=O)[C@@H](Cc2ccccc2)NC1=O` [XQ2, Cyclo (LfAVRLfPVR)] (cyclo(L[dF]AVRL[dF]PVR)), the “puncta formation of EGFP-cGAS with ISD” value in test [1] was “markedly inhibited the puncta formation of EGFP-cGAS with ISD”. Also, the “dsDNA-induced luciferase reporter signal” value in test [2] is given as “inhibited dsDNA-induced signaling in THP1 cells in a dose-dependent manner with an inhibitory activity comparable to that of RU.521”. In addition, the “luciferase activity, Fig. 2a” value in test [2] (Mock (no dsDNA), compound 10 μM, replicate values) was 0.1339 and 0.107 and 0.1281; in test [2] (Mock, 1.25 μM), 0.09057 and 0.08624 and 0.1133; in test [2] (Mock, 2.5 μM), 0.08177 and 0.0892 and 0.09714; in test [2] (Mock, 5 μM) it was 0.1148 and 0.09368 and 0.09512; in test [2] (dsDNA 24 h, 1.25 μM), 0.7893 and 0.9483 and 1.24; in test [2] (dsDNA 24 h, 2.5 μM), 1.035 and 1.02 and 0.8001. The “luciferase activity, Fig. 2a” value in test [2] (dsDNA 24 h, 5 μM) is 0.8667 and 0.7097 and 0.78; in test [2] (dsDNA 24 h, compound 10 μM, 3 h pretreatment, replicate values), 0.4481 and 0.3329 and 0.2712. The “Type I interferon response, luciferase activity, Fig. 1c” value in test [2] (dsDNA 24 h, replicate values) is 0.5575 and 0.4465 and 0.4391. For the same molecule, in test [3], the “HSV-1 cytopathogenic effect in Hela cells” value is given as “further enhanced the CPE”. Besides, the “binding with ISD, MST” value in test [4] is on record as “no binding of XQ2 with ISD”. In addition, the “binding to hcGAS-FL (D191R), SPR” value in test [5] is “markedly reduced the binding affinity of XQ2 with cGAS; also recorded: could not be determined by saturation binding”.

As for `CC(C)C[C@@H]1NC(=O)[C@H](CCCNC(=N)N)NC(=O)[C@H](C(C)C)NC(=O)[C@@H]2CCCN2C(=O)[C@@H](Cc2ccccc2)NC(=O)[C@H](CC(C)C)NC(=O)[C@H](CCCNC(=N)N)NC(=O)[C@H]([C@@H](C)O)NC(=O)[C@H](C)NC(=O)[C@@H](Cc2ccccc2)NC1=O` [XQ2B] (cyclo([dF]ATRL[dF]PVRL)), the “Induced cell death(%) (Fig. S8d)” value in test [6] (ISD +) was 18.8% and 19.1% and 18.5%; in test [6] (ISD -), 3.9% and 3.8%.
